Results on two compounds are retold here after US11160798B2, “Neuroprotective CB2 receptor agonists” (THE CLEVELAND CLINIC FOUNDATION, priority 2012, dated 2021).

For experiment [1], the target named is CB2 receptor (Homo sapiens, UniProt P34972). The following applies: cited from earlier work.
Experiment [2] relates to cognitive impairment induced by Aβ1-40. As to the kind of experiment: Morris water maze test in rats microinjected with Aβ1-40 fibrils. The experiment is classed as in vivo, rat. The following applies: Aβ1-40-injected rats. As for the experimental part: Animals and treatment protocol. All animal procedures were approved by the Animal Care and Use Committee of Cleveland Clinic. Animals were housed the Institutional Biological Rodent Unit on a 12/12 h light/dark cycle with water and food pellets available ad libitum. Adult male Sprague-Dawley (Charles River, Wilmington, Mass.) rats weighing 200-250 g were used, and all experiments were performed during the light cycle.
(§1) Animals were divided into several groups ([…]). The Aβ1-40 group received bilateral intracerebral microinjection of Aβ1-40 fibrils once and saline intraperitoneally (i.p.) daily for 14 days. The Aβ1-40+MDA7 group received bilateral intracerebral microinjection of Aβ1-40 fibrils once and 15 mg/kg MDA7 i.p. daily for 14 days. Other cohorts received smaller doses of MDA7 (5 mg/kg or 1.5 mg/kg) i.p. daily for 14 days to determine the dose-response characteristics for MDA7. In other groups, AM630 (a CB2 antagonist) 5 mg/kg i.p. was administered daily for 14 days either alone (Aβ1-40+AM630 group) or 15 min prior to MDA7 (15 mg/kg i.p.) administration (Aβ1-40+MDA7+AM630 group) to rats injected with β1-40 fibrils. MDA7 group and control group received bilateral intracerebral microinjection of artificial cerebrospinal fluid (130 mM NaCl, 2.6 mM KCl. 4.3 mM MgCl2 and 1.8 mM CaCl2) once and 15 mg/kg MDA7 or saline i.p. daily for 14 days, respectively. Intraperitoneal administration of AM630, MDA7 or saline started on the same day after intracerebral microinjection of Aβ1-40. All drugs were prepared coded. Decoding was performed at the end of all experiments.
Microinjection of amyloid fibrils into the hippocampal CA1 area. Rats were anesthetized with sodium pentobarbital (45 mg/kg i.p.) and restrained in a stereotaxic apparatus. Aβ1-40 fibrils were formed as described previously. Chacon, et al., Mol Psychiatry 9(10), 953-61 (2004), Aβ1-40 fibrils (10 μg/3 μl) or 3 μl of artificial cerebrospinal fluid were injected stereotaxically and bilaterally into each hippocampus (coordinates; Bregma −3.5 mm anteroposterior, ±2.0 mm mediolateral, and −3.0 mm dorsoventral) using a 10 μl Hamilton syringe with a 27 G stainless steel needle at a rate of 0.5 μl/min. This experimental model has been used for studying AD. Ahmed, et al., Neuroscience 169(3), 1296-306 (2010).
Morris water maze test. A cohort of rats (n=10 per group) was tested 15 days after surgery as described by Chacon et al. (ibid). Testing was conducted in all groups at the same time of the day. The experimental apparatus consisted of a circular pool (120 cm in diameter, 45 cm high). An invisible platform (15 cm in diameter, 35 cm high) was placed 1.5 cm below the surface of the water. The water temperature was kept at 24-28° C. The pool was located in a test room, and many clues external to the maze were visible from the pool, which could be used by the rats for spatial orientation. The position of the cues was kept constant throughout the task. Each rat underwent four trials per day for five days. During each trial (memory acquisition), the rats were placed randomly at one of four fixed starting points and were allowed to swim for 120 s or until they escaped from the water by reaching the platform. The platform was located in the same position throughout the test in the middle of one quadrant. The start location was moved to a different quadrant in each trial so that no single start location was used in consecutive trials. In each training session, the latency to escape to the hidden platform was recorded. After the rats reached the platform, they were allowed to rest there for 20 seconds, and they then were removed from the pool. An inter-trial interval of at least 4 minutes was used to ensure that each rat's performance was not impaired by fatigue. After completing four trials, the rats were removed from the pool, dried and returned to their home cage. […]

In experiment [3] the test system is Aβ1-40. As to the kind of experiment: Clearance of Aβ1-40 injected in the hippocampal CA1 area (immunofluorescence). The experiment is classed as in vivo, rat. Here is the method: as §1
Microinjection of amyloid fibrils into the hippocampal CA1 area. Rats were anesthetized with sodium pentobarbital (45 mg/kg i.p.) and restrained in a stereotaxic apparatus. Aβ1-40 fibrils were formed as described previously. […]
Immunostaining. […] Three to six sections from each rat were randomly selected and were analyzed using Leica DMLB fluorescence microscope (Leica Microsystems Wetzlar GmbH, Germany) by one investigator, who was blinded to the origin of tissue being examined. Images were quantified using MCID Core software version 7.0 (InterFocus Imaging Ltd, Cambridge, England).

Sequence of CB2 receptor (P34972 whole entry): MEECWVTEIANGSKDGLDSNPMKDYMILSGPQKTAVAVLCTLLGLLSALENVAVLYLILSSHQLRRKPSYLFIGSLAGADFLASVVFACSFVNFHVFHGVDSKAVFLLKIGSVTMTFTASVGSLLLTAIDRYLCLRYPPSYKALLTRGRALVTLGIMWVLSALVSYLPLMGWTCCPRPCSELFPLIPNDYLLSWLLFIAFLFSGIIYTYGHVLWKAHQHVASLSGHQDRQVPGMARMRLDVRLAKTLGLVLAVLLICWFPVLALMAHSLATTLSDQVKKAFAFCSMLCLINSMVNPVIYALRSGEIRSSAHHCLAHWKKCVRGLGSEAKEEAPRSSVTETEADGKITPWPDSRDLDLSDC

Take `CC1(Cc2ccccc2)COc2cc(C(=O)N3CCCCC3)ccc21` (stereo in doubt) [S enantiomer, (S)-(3-benzyl-3-methyl-2,3-dihydro-benzofuran-6-yl)-piperidin-1-yl-methanone]: the “activity compared with the other enantiomer” value in experiment [1] is reported as “higher activity”.

As to `COc1ccc(C(=O)c2c(C)n(CCN3CCOCC3)c3cc(I)ccc23)cc1` [AM630, reference compound], the “effect on escape latency of AM630 given prior to MDA7” value in experiment [2] (AM630 5 mg/kg i.p. 15 min prior to MDA7 15 mg/kg i.p., daily for 14 days) is reported as “reversed the effect of MDA7”. For the same compound, the “spatial memory or probe test, AM630 alone” value in experiment [2] (AM630 5 mg/kg i.p. daily for 14 days alone, vs Aβ1-40 group) is on record as “did not show any improvement”. Besides, the “effect of prior AM630 on MDA7-induced removal of Aβ1-40” value in experiment [3] (AM630 5 mg/kg i.p. for 14 days prior to MDA7 15 mg/kg) is “abrogated”. Further, the “clearance of injected Aβ1-40, AM630 alone” value in experiment [3] (Aβ1-40-injected rats, AM630 5 mg/kg i.p. alone) is reported as “no effect”.
